Patent publication US20120135923A1, “Use of Melanocortins to Treat Dyslipidemia” (IPSEN PHARMA, S.A.S., priority 2009, published 2012)
Entries after “also recorded” stand apart in the source; their conditions may differ. Where two headings read alike, the source gives them in different places. Bridge positions count the residues as written; N and C are the ends. Square brackets hold non-standard residues; d marks the D form. Peptide text beside a SMILES is read from it. Bip = N[C@@H](Cc1ccc(-c2ccccc2)cc1)C(=O)O; d2Nal = N[C@H](Cc1ccc2ccccc2c1)C(=O)O; hArg = N=C(N)NCCCC[C@H](N)C(=O)O; Nle = CCCC[C@H](N)C(=O)O; Ahx = NCCCCCC(=O)O; GABA = NCCCC(=O)O; βAla = NCCC(=O)O

Tests used:
[1] = target: T1, hMC5-R (Homo sapiens, UniProt P33032); experiment: Radioligand binding assay, [125I]-NDP-α-MSH competition, CHO-K1 membranes; details: Table 5
T1 construct: expressed in transfected cells; host or cells: CHO-K1
T1 sequence (P33032 whole entry): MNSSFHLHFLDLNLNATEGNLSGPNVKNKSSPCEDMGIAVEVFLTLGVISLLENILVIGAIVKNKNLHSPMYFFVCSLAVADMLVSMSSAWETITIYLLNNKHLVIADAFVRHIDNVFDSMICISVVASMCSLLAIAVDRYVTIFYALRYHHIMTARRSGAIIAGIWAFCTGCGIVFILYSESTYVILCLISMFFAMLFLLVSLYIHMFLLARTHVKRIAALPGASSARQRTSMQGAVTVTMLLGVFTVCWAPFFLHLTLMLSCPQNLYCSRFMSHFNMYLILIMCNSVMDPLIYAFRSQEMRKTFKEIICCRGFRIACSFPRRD

[2] = target: T2, hMC1-R (Homo sapiens, UniProt Q01726); experiment: as above; details: Table 5; read-out: Ki hMC1-R
T2 construct: expressed in transfected cells; host or cells: CHO-K1
T2 sequence (Q01726 whole entry): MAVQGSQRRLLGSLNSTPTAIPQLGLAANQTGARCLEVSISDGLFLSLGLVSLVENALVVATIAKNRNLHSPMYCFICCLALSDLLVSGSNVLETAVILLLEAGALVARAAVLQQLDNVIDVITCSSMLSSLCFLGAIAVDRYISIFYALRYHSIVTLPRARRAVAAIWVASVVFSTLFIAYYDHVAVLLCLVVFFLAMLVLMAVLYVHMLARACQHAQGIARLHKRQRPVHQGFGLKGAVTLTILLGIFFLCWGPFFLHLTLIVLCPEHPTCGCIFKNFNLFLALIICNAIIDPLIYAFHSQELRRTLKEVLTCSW

[3] = target: T3, hMC4-R (Homo sapiens, UniProt P32245); experiment: as above; details: Table 5; read-out: Ki KMC4-R
T3 construct: expressed in transfected cells; host or cells: CHO-K1
T3 sequence (P32245 whole entry): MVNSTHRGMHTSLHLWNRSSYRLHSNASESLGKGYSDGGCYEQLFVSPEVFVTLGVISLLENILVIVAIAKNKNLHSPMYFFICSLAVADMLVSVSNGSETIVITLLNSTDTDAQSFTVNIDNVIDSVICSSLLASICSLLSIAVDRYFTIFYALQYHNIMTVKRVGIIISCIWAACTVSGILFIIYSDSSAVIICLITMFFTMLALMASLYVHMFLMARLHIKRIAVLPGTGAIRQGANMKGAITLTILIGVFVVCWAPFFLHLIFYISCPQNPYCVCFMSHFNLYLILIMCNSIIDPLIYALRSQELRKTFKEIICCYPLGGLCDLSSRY

[4] = target: T4, hMC3-R (Homo sapiens, UniProt P41968); experiment: as above; details: Table 5; read-out: Ki hMC3-R
T4 construct: expressed in transfected cells; host or cells: CHO-K1
T4 sequence (P41968 whole entry): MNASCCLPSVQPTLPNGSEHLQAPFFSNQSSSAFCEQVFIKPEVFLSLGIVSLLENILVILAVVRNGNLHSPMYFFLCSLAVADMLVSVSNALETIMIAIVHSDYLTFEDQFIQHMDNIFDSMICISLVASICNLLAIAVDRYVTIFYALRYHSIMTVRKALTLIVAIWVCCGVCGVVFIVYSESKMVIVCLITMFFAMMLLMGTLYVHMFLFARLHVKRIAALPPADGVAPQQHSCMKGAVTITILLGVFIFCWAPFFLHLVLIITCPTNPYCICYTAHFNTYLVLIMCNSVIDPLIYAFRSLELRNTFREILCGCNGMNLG

[5] = target: T4, hMC3-R; experiment: cyclic AMP bioassay (ECL) in CHO-K1 cells; format: cell-based; details: for Kb: Table 9C/9D, antagonist potency by Schild analysis, read-out: Kb hMC3-R; for EC50: Table 9A/9B, read-out: EC50 hMC3-R
[6] = target: T1, hMC5-R; experiment: cyclic AMP bioassay (ECL) in CHO-K1 cells; format: cell-based
[7] = target: T3, hMC4-R; experiment: cyclic AMP bioassay (ECL) in CHO-K1 cells; format: cell-based; details: for Kb: Table 9C/9D, antagonist potency by Schild analysis, read-out: Kb MC4-R; for EC50: Table 9A/9B, read-out: EC50 hMC4-R
Procedure: Intracellular cyclic AMP (cAMP) levels were determined by an electrochemiluminescence (ECL) assay (Meso Scale Discovery®, Gaithersburg, Md.; referred to hereinafter as MSD). […] Transgenic CHO-K1 cells stably expressing hMC receptor subtypes 1, 3, 4 or 5 were dispensed at a density of approximately 7,000 cells/well in 384-well Multi-Array®plates (MSD) containing integrated carbon electrodes and coated with anti-cAMP antibody. Increasing concentrations of the test compounds were added and the cells were incubated for approximately 40 minutes at approximately 37° C. […] At the end of the second incubation period read buffer (Tris-buffered solution containing an ECL co-reactant and Triton X-100 at ph 7.8) was added and the cAMP levels in the cell lysates were immediately determined by ECL detection with a Sector Imager 6000 Reader® (MSD). Data were analyzed using a computer-assisted non-linear regression analysis (XL fit; IDBS) and reported as either an EC50 value or a Kb value.
The Kb value reflects the potency of an antagonist and is determined by Schild analysis. In brief, concentration-response curves of an agonist are carried out in the presence of increasing concentrations of an antagonist. […] It is calculated by extrapolating the line on a Schild plot to zero on the y-axis.

[8] = target: T2, hMC1-R; experiment: cyclic AMP bioassay (ECL) in CHO-K1 cells; format: cell-based; details: read-out: EC50 hMC1-R
[9] = system: obese Zucker rats; experiment: Intravenous glucose tolerance test after 7 day sc infusion; format: in vivo, rat
Procedure: (§1) The dosage forms were prepared prior to the start of the experiment and used to fill the pumps under sterile conditions. Pumps were primed overnight at 37° C. in sterile saline and implanted on the starting day of the experiment.
(§2) Three groups of eight obese male Zucker rats (350-400 g) were housed in individual cages and maintained under 12:12 hour light:dark conditions with both food (Harlan Teklad Sterilized Rodent Diet LM-485) and water available ad libitum.
(§3) On the morning of day 1, the rats were anesthetized using chlorohydrate anesthetic and implanted with a sub-cutaneous infusion pump (Alzet® 2002) just under the skin. […] Individual body weight and food and water consumption were measured daily at 0800 hours for 7 days.
(§4) On day 7 a right atrial cannula was implanted in the jugular vein under cholorohydrate anesthesia. The animals were fasted overnight and an intravenous (iv) glucose tolerance test was performed. Glucose (1 g/kg) was injected at time 0 and blood samples were taken via the cannula at 0, 2.5, 5, 10, 20 and 40 minutes post-injection. Plasma was collected and assayed for glucose (Glucose (Trinder) Assay; Diagnostic Chemicals Limited, Charlottetown, P.E.I., Canada; Cat #220-32) and insulin (Mercodia Rat Insulin ELISA; Mercodia, Uppsala, Sweden; ALPCO 10-1124-10) content. At the conclusion of the glucose tolerance test and additional serum samples were collected and assayed for triglycerides (Triglyceride L-Type TG H kit: Wako Diagnostics, Richmond, Va.), cholesterol (Cholesterol E assay kit: Wako Diagnostics, Richmond, Va.) and free fatty acids (Fatty Acid HR series NEFA-HR2 kit: Wako Diagnostics, Richmond, Va.).

[10] = system: obese Zucker rats; experiment: Serum triglycerides, cholesterol and free fatty acids after 7 day sc infusion; format: in vivo, rat; details: 50 and 500 nmole/kg/day sc infusion
Procedure: as §1, §2, §3, §4

[11] = system: obese Zucker rats; experiment: Body weight and food intake, 7 day sc infusion; format: in vivo, rat; details: for decrease in body weight gain: day 7, vs vehicle; for decrease in food intake: end of 7 day treatment
Procedure: as §1
The Zucker rats are obese due to a spontaneous mutation in the […].
as §2, §3

[12] = Table 9C/9D, read-out: EC50 hMC5-R
[13] = Table 9A/9B, read-out: EC50 hMC5-R

Ki ([1]; read-out: Ki hMC5-R) [nM] | Ki [2] [nM] | Ki [3] [nM] | Ki [4] [nM] | Kb [5] [nM] | EC50 [6, 12] [nM] | Kb [7] [nM] | EC50 ([8]; Table 9C/9D) [nM] | EC50 [5] [nM] | EC50 [6, 13] [nM] | EC50 [7] [nM] | EC50 ([8]; Table 9A/9B) [nM] | Compound | also measured
0.366 | 0.333 | 0.998 | 2.91 | 10.8 | 0.126 | 0.967 | 0.581 |  |  |  |  | CCCC[C@H](NC(C)=O)C(=O)N[C@H]1CSSC[C@@H](C(N)=O)NC(=O)CCCCCNC(=O)[C@H](Cc2c[nH]c3ccccc23)NC(=O)[C@H](CCCNC(=N)N)NC(=O)[C@@H](Cc2ccc3ccccc3c2)NC(=O)[C@H](Cc2c[nH]cn2)NC1=O [Ac-Nle-c(Cys-His-D-2-Nal-Arg-Trp-Ahx-Cys)-NH2] (Ac-[Nle]CH[d2Nal]RW[Ahx]C-NH2; disulfide 2-8 (inferred)) | 
1.11 | 0.393 | 0.375 | 1.86 | 18.4 | 0.153 | 0.782 | 0.231 |  |  |  |  | CCCC[C@H](NC(C)=O)C(=O)N[C@H]1CSSC[C@@H](C(N)=O)NC(=O)CCCNC(=O)[C@H](Cc2c[nH]c3ccccc23)NC(=O)[C@H](CCCNC(=N)N)NC(=O)[C@@H](Cc2ccc3ccccc3c2)NC(=O)[C@H](Cc2c[nH]cn2)NC1=O [Ac-Nle-c(Cys-His-D-2-Nal-Arg-Trp-Gaba-Cys)-NH2] (Ac-[Nle]CH[d2Nal]RW[GABA]C-NH2; disulfide 2-8) | 
 |  |  |  |  |  |  |  |  |  |  |  | CC(=O)N[C@@H](CCCNC(=N)N)C(=O)N[C@H]1CSSC[C@@H](C(N)=O)NC(=O)[C@H](Cc2c[nH]c3ccccc23)NC(=O)[C@H](CCCNC(=N)N)NC(=O)[C@@H](Cc2ccccc2)NC(=O)[C@H](Cc2c[nH]cn2)NC(=O)[C@@H](C)NC1=O [Compound A, Ac-Arg-c(Cys-D-Ala-His-D-Phe-Arg-Trp-Cys)-NH2] | Ki ([1]; Ki hMC5-R): 430 nM; basal fasted plasma glucose ([9]; 500 nmole/kg/day sc infusion, fasted overnight): decreased; plasma glucose levels after a glucose challenge ([9]; 50 and 500 nmole/kg/day, glucose 1 g/kg iv): decreased; amount of insulin required to clear the glucose challenge ([9]; 7 day infusion, glucose tolerance test): decreased; EC50 [6]: 1630 nM; serum cholesterol [10]: Dose-related decrease; serum free fatty acids [10]: dose-related decreases; also recorded: Decrease; serum triglycerides [10]: Dose-related decrease; decrease in body weight gain ([11]; 50 nmole/kg/day sc infusion): 35 g; decrease in food intake ([11]; 50 nmole/kg/day sc infusion): 60 g; decrease in body weight gain ([11]; 500 nmole/kg/day sc infusion): 60 g; decrease in food intake ([11]; 500 nmole/kg/day sc infusion): 100 g
38 | 0.128 | 36.9 | 85.6 |  |  |  |  | 81.8 | 31.8 | 86.9 | 0.685 | CCOc1ccc(C[C@H]2NC(=O)[C@H](Cc3c[nH]cn3)NC(=O)[C@@H](NC(=O)[C@H](N)Cc3ccccc3)CSSC[C@H](C(=O)N[C@H](C(N)=O)[C@@H](C)O)NC(=O)CCNC(=O)[C@H](Cc3ccc(-c4ccccc4)cc3)NC(=O)[C@H](CCCCNC(=N)N)NC2=O)cc1 [D-Phe-c(Cys-His-D-(Et)Tyr-hArg-Bip-β-Ala-D-Cys)-Thr-NH2] (H-[dF]CH[dY](Et)[hArg][Bip][βAla][dC]T-NH2; disulfide 2-8) | 
9.27 | 0.0567 | 14.7 | 31.4 |  |  |  |  | 2.71 | 2.38 | 5.38 | 0.345 | CCOc1ccc(C[C@H]2NC(=O)[C@H](Cc3c[nH]cn3)NC(=O)[C@@H](NC(=O)[C@H](N)Cc3ccccc3)CSSC[C@H](C(=O)N[C@H](C(N)=O)[C@@H](C)O)NC(=O)CCNC(=O)[C@H](Cc3c[nH]c4ccccc34)NC(=O)[C@H](CCCCNC(=N)N)NC2=O)cc1 [D-Phe-c(Cys-His-D-(Et)Tyr-hArg-Trp-β-Ala-D-Cys)-Thr-NH2] (H-[dF]CH[dY](Et)[hArg]W[βAla][dC]T-NH2; disulfide 2-8) | 
